Converted amounts (≈) assume the structure as drawn. Read-outs that look alike come from different tables or passages of the source.
Legend:
[1] = Solubility in MiliQ water, quantified by HPLC; type: physicochemical; details: thermodynamic from solid, 0.5 mL MiliQ water, room temperature, 6 hours shaking, read-out: Solubility: average concentration of amphotericin B
[2] = system: Candida albicans; assay: Growth inhibition assay with resazurin colorimetric readout (MIC48h); type: cell-based; details: RPMI 1640, 30° C., 48±2 hours, unmodified drug in DMSO, film in aqueous media
Text: (§1) Tis Example provides a description of antifungal efficacy testing wherein minimum inhibitor concentration (MIC) of the active pharmaceutical ingredient amphotericin B in the orally dissolvable films disclosed herein compared to that of unmodified amphotericin B. The test organism utilized in this experiment was Candida albicans.
Three to five colonies of a single Candida albicans strain were selected from stock YPD agar (agar comprising yeast extract, peptone, and dextrose; also referred to as YEPD agar) plates and suspended in Roswell Park Memorial Institute (RPMI) 1640 medium. The process was repeated to form a number of suspensions of Candida albicans. The Candida albicans suspensions were then each diluted to achieve an initial inoculum with an Abs600 of 0.010.
Test compositions of unmodified amphotericin B in DMSO and orally dissolvable films of amphotericin B in aqueous media were added, followed by serial dilution of the RPMI media.
A growth inhibition assay was performed in triplicate and results determined using a resazurin colorimetric assay. All plated compositions were incubated at 30° C. for 48±2 hours. […] After incubation, 20 μL of resazurin dye (0.02% w/v) was added to each well and observed for a change in dye color to determine cell viability.

[3] = system: Candida albicans; assay: Resazurin microtiter assay (REMA) MIC; type: cell-based
Procedure: as §1, with “This” for “Tis”, “organisms” for “organism”, “were Candida tropicalis and” for “was”
(§2) A resazurin microtiter assay (REMA) assay was performed using orally dissolvable films prepared according to the process described in Example 3 and unmodified amphotericin B. Samples were run in triplicate as Sets 1-3 for each test material against each pathogen.
(§3) Images of the microtiter plates used to conduct this experiment are shown in FIG. 5, illustrating the results of MIC assay. […] Results of the orally dissolvable film (“ODF (A)”) and unmodified amphotericin B (“AmpB (B)”) against Candida tropicalis and Candida albicans are shown in the microtiter plates on the left and right, respectively. The first row of each microtiter plate (top) contains a positive control (“P.C.”). The second row of each microtiter plate contains a negative control (“N.C.”).

[4] = system: Candida tropicalis; assay: Resazurin microtiter assay (REMA) MIC; type: cell-based
Procedure: as §1, with “This” for “Tis”, “organisms” for “organism”, “were Candida tropicalis and” for “was”
as §2, §3

[5] = limited solubility and permeability; cited from earlier work
[6] = read-out: Minimum Inhibitory Concentration, Avg.
[7] = read-out: Minimum Inhibitory Concentration, Set 1
[8] = read-out: Minimum Inhibitory Concentration, Set 2
[9] = read-out: Minimum Inhibitory Concentration, Set 3

solubility at 6 h [1]: 630 µg/mL (≈ 682 µM)
MIC [2]: 1.25 µM (≈ 1.16 µg/mL)
MIC ([3]; read-out: Average MIC): 1.1 µg/mL (≈ 1.19 µM)
MIC [3, 6]: 1.1 µg/mL (≈ 1.19 µM)
MIC [3, 7]: 1.1 µg/mL (≈ 1.19 µM)
MIC [3, 8]: 1.1 µg/mL (≈ 1.19 µM)
MIC [3, 9]: 1.1 µg/mL (≈ 1.19 µM)
MIC ([4]; read-out: Average MIC): 1.1 µg/mL (≈ 1.19 µM)
MIC [4, 6]: 1.1 µg/mL (≈ 1.19 µM)
MIC [4, 7]: 1.1 µg/mL (≈ 1.19 µM)
MIC [4, 8]: 1.1 µg/mL (≈ 1.19 µM)
MIC [4, 9]: 1.1 µg/mL (≈ 1.19 µM)
SMILES: C[C@@H]1[C@H](O)[C@@H](C)/C=C/C=C/C=C/C=C/C=C/C=C/C=C/[C@H](O[C@@H]2O[C@H](C)[C@@H](O)[C@H](N)[C@@H]2O)C[C@@H]2O[C@](O)(C[C@@H](O)C[C@@H](O)[C@H](O)CC[C@@H](O)C[C@@H](O)CC(=O)O[C@H]1C)C[C@H](O)[C@H]2C(=O)O [AmpB, (1R,3S,5R,6R,9R,11R,15S,16R,17R,18S,19E,21E, 23E, 25E, 27E,29E,31E,33R,35S,36R,37S)-33-[(2R,3S,4S,5S,6R)-4-amino-3,5-di hydroxy-6-methyloxan-2-yl] oxy-1,3,5,6,9,11,17,37-octahydroxy-15,16,18-trimethyl-13-oxo-14,39-dioxabicyclo[33.3.1]nonatriaconta-19,21,23, 25, 27,29,31-heptaene-36-carboxylic acid]
Biopharmaceutics Classification System (BCS) class [5]: class IV

— patent US12109303B2, “Orally dissolving antimicrobial film compositions and methods of their use” (ISHA Therapeutics LLC, priority 2022, dated 2024)
